In patent US20160250245A1, “Methods and Pharmaceutical Composition for the Treatment of Polyomavirus Infections” (INSERM (INSTITUT NATIONAL DE LA SANTÉ ET DE LA RECHERCHE …, priority 2013, published 2016):

Assays:
[1] = tested on: BKV (Dunlop); assay: BKV replication in Vero cell line, extracellular BKV DNA load by qPCR; format: cell-based, BK virus; conditions: Vero cells
Method: (§1) For each assay, one cell aliquot was thawed and cells cultured for three days in one 25 cm^2 culture flask. Cells were then trypsinized, washed, resuspended and seeded at 1×10^4 cells/well in […] in flat bottom 96-well microplates. After 24 h incubation, cells at 75% confluence were infected with 1×10^9 genomes per well in BK medium (199 medium with 2% FBS, 2% HEPES, 1% penicillin-streptomycin 10000 U/μg final concentration). After 4 h incubation (37° C., 5% CO2), medium was removed and replaced with 200 μL of fresh BK medium after four washes. 72 h later, medium was replaced with fresh BK medium with or without gemcitabine at the indicated final concentrations. After 48 h incubation, cell culture supernatants were harvested and frozen at −80° C.
(§2) Extracellular DNA was extracted from 100 μL frozen supernatants using the automated nucleic acids extractor Nuclisens Easymag (BioMérieux, Marcy l'Etoile, France) following the manufacturer's Generic 2.0.1 procedure. Extracts were resuspended in a final volume of 25 μL buffer 3.
(§3) To quantify extracellular BKV DNA load, a quantitative PCR (qPCR) was done using the following primers (Eurofins MWG Operon) and probe (Applied Biosystem, UK): […]
(§4) Reactions were performed in a total volume of 25 μl with 5 μL of DNA extract, […] TaqMan Universal PCR Master Mix (Applied Biosystems, Hoffmann La Roche, Meylan, France), 6.5 μL H2O, 2.5 μL of each primer at 30 μM and 1 μL of probe at 10 μM.
(§5) Amplification was performed using the Rotor-Gene 6000 (Corbett Life Science) with the following PCR program: 50° C., 2 min; denaturation at 95° C., 10 min; and 45 cycles of 95° C., 15 sec; 60° C., 60 sec. Quantification was calculated with an external calibration curve using BKV plasmid constructs.

[2] = tested on: VP-1; assay: Immunofluorescence of VP-1 expression in infected RPTEC cells; format: cell-based, BK virus; conditions: 5 days of treatment
Method: (§6) For each assay, one cell aliquot containing 2×10^6 cells was thawed and cells were cultured for six days in one 75 cm^2 culture flask. Cells were then trypsinized, washed, resuspended and seeded at 5×10^4 cells/well in 1 ml medium in flat bottom 24-well collagen-coated microplates. After 48 h incubation, medium was replaced with fresh REBM base medium without grown factors and supplemented with inactivated fetal bovine serum (FBS Brazilian origin, Lonza) and penicillin-streptomycin 10000 U/μg to a final concentration of 2% and 1% respectively. 48 h later, cells at 95% confluence were infected with 1×10^9 genomes per well. After 4 h incubation (37° C., 5% CO2), medium was removed and replaced with 1 ml of fresh medium without grown factors after two washes with and without gemcitabine or cidofovir at the indicated concentrations. 72 h later, at day 3 of treatment, supernatants were harvested and frozen at −80° C. and medium was replaced with fresh medium without grown factors and with the indicated concentrations of gemcitabine or cidofovir. After 48 h incubation, at day 5 of treatment, cell culture supernatants were harvested and frozen at −80° C. […]

[3] = tested on: RPTEC primary cells; assay: Cytotoxicity / cell growth by LDH activity in RPTEC primary cells; format: cell-based, human
Method: (§7) For each assay, one cell aliquot containing 2×10^6 cells was thawed and cells were cultured for six days in one 75 cm^2 culture flask. Cells were then trypsinized, washed, resuspended and seeded at 5×10^4 cells/well in 1 ml medium in flat bottom 24-well collagen-coated microplates. After 48 h incubation, medium was replaced with fresh REBM base medium without grown factors and supplemented with inactivated fetal bovine serum (FBS Brazilian origin, Lonza) and penicillin-streptomycin 10000 U/μg to a final concentration of 2% and 1% respectively. 48 h later, cells at 95% confluence were infected with 1×10^9 genomes per well. After 4 h incubation (37° C., 5% CO2), medium was removed and replaced with 1 ml of fresh medium without grown factors after two washes with and without gemcitabine or cidofovir at the indicated concentrations. 72 h later, at day 3 of treatment, supernatants were harvested and frozen at −80° C. and medium was replaced with fresh medium without grown factors and with the indicated concentrations of gemcitabine or cidofovir. After 48 h incubation, at day 5 of treatment, cell culture supernatants were harvested and frozen at −80° C.
(§8) Cytotoxicity was analyzed by two colorimetric assays using the “Cytotoxicity Detection Kit (LDH)” and “Cell proliferation ELISA, BrdU” (Roche Diagnostics, Meylan, France).
(§9) The quantity of LDH was measured in cell culture supernatants and cells from every wells used for the quantification of virus replication including infected and non-infected wells and in presence or not of gemcitabine at the end of the test period according to the manufacturer's protocol. Absorbance at 492 nm (sample) and at 620 nm (background) was recorded 30 min after addition of the reaction mixture. Medium alone served as blank. Measure of LDH activity in culture supernatants was used to monitoring cell lysis and the activity in cell lysates to monitoring cell viability and mass at 72 and 120 h p.i

[4] = tested on: Vero cell line; format: cell-based, Cercopithecus aethiops; conditions: Vero cell culture system
Method: as §1, §8
as §9, with “Measure of LDH activity in culture supernatants was used to monitoring cell lysis and the activity in cell lysates to monitoring cell viability and mass at 72 and 120 h p.i” left out

[5] = tested on: BKV (Dunlop strain); assay: BKV replication in RPTEC primary cells, extracellular BKV DNA load by qPCR; format: cell-based, BK virus
Method: as §7, §2, §3, §4, §5

[6] = tested on: T antigen; assay: Immunofluorescence of T antigen expression in infected RPTEC cells; format: cell-based, BK virus; conditions: 5 days of treatment
Method: as §6

SMILES	IC50 ([1]; Betapolyomavirus hominis, 48 h, BKV Dunlop, two days of treatment, read-out: IC50, inhibition of viral replication) [nM]	IC90 ([1]; Betapolyomavirus hominis, 48 h, BKV Dunlop, two days of treatment, read-out: IC90, inhibition of viral replication) [nM]	inhibition of viral replication ([1]; concentration as low as 10 nM, in two days)	expression of the late capsid protein VP-1 [2]	toxicity [3]	effect on cellular growth (LDH) at higher concentrations ([3]; RPTEC, 50 nM range)	effect on cellular growth measured by the intracellular LDH activity ([3]; infected RPTEC, effective antiviral concentrations (up to 10 nM), day 5)	IC50 specificity index [4]	IC50 ([5]; Betapolyomavirus hominis, RPTEC, BKV Dunlop, read-out: IC50, inhibition of viral replication) [nM]	IC90 ([5]; Betapolyomavirus hominis, RPTEC, BKV Dunlop, read-out: IC90, inhibition of viral replication) [nM]	inhibitory effect on viral replication, 5 days versus 3 days of treatment ([5]; RPTEC)	concentrations repressing BKV replication ([5]; summary: two different cellular models, including primary renal epithelial cells) [nM]	expression of the early protein antigen T [6]	concentration range repressing BKV replication ([5]; RPTEC, same conditions as gemcitabine)
Nc1ccn(C2OC(CO)C(O)C2(F)F)c(=O)n1 (centres unmarked) [gemcitabine, 4-amino-1-[3,3-difluoro-4-hydroxy-5-(hydroxymethyl)tetrahydrofuran-2-yl]-1H-pyrimidin-2-one]	1.5 to 2	2.5 to 5	totally inhibited	inhibited	no toxicity was observed	seemed to slow down	could suppress the inhibitory effect of viral infection on the cellular growth	≥ 10	~10	~50	higher after 5 days than after 3 days	~10	inhibited	
Nc1ccn(C[C@@H](CO)OCP(=O)(O)O)c(=O)n1 [cidofovir]														μM range
